Results: patent US20250179126A1, “A NOVEL PEPTIDE FROM A PHOTOSYNTHETIC BACERIUM DIRECTLY TARGETS MITOCHONDRIA TO TRIGGER APOPTOSIS IN ADVANCED PROSTATE CANCER CELLS” (priority 2022, published 2025)
Entries after “also recorded” stand apart in the source; their conditions may differ.

Tests used:
[1] = test system: spontaneous mammary tumors; type: in vivo, MMTV-PyMT transgenic mice
Text: FIG. 26A-26H: Azurin-producing P. aeruginosa in human tumors. The azurin-encoding gene (azu) was detected in tumors from patients with breast cancer and melanoma. It was amplified by PCR with P. aeruginosa azu-specific primers and confirmed by DNA sequencing. […] In melanoma (26A), 27.6% (8 of 29) of primary tumors and 5.9% (2 of 34) of metastatic tumors were azu positive (P<0.05). In breast cancer (26B), 22.7% (5 of 22) of primary tumors and 14.3% (2 of 14) of metastatic tumors were azu positive (P>0.05). In addition, frozen tumor samples were processed for immunogold transmission electron microscopy (TEM) by using anti-P. aeruginosa and anti-azurin antibodies. […] Magnification: ×3000. […] Survival analysis of patients with azu-positive vs. azu-negative primary melanoma (26E, P<0.01) and primary breast cancer (26F, P<0.05) tumors. 26G—Hemizvgous MMTV-PyMT transgenic mice were injected with either PBS control or 2.5 mg/kg azurin (intraperitoneally, 3× weekly) for 2 months. The mean+SE values of tumor volume were calculated. h Tumor-free survival curve was generated with the PBS control and 2.5 mg/kg azurin groups of MMTV-PyMT transgenic mice. Median tumor-free survival of the PBS control and azurin-treatment groups was 67 and 72 days, respectively. P=0.015
FIG. 29A-29C: Effect of azurin from P. aeruginosa in a transgenic animal model. 29A. Near-infrared red (NIR) dye-conjugated azurin or PBS was injected i.v. into transgenic mice that spontaneously develop mammary tumors. Twenty-four hours after azurin injection, mice were imaged with a photodynamic eye (PDE) system (left: photographic image, right: NIR fluorescence image at 800 nm). 29B. At the end of the study, the tumors were resected.
Effect of azurin on transgenic mice: Hemizygous MMTV-PyMT (mouse mammary tumor virus-polyoma middle tumor-antigen) female mice were obtained from The Jackson Laboratory. […] In order to reach this level of azurin in mouse (25 g-body weight, 2 ml total blood volume), azurin does at 2.5 mg/kg was determined. Tumor volume and body weights were determined three times weekly. […]

[2] = test system: LNCaP prostate cancer cells; assay: MTT cell viability assay, LNCaP prostate cancer cells; type: cell-based, human
Experimental: (§1) Cell lines and culture: Human cancer and noncancer (immortalized and nonimmortalized) cell lines were obtained from the American Type Culture Collection [prostate cancer (PC3, DU145 and LNCaP), normal prostate (CRL11611), breast cancer (MCF-7), ovarian cancer (SK-OV3 adenocarcinoma), lung cancer (A549)]. MDD2 breast cancer cells (p53 dominant-negative) were provided courtesy of Dr Andrei V. Gudkov, Roswell Park Cancer Institute. 20 All cell lines were cultured in MEM-E (Invitrogen) supplemented with 10% heat-inactivated fetal bovine serum (Atlanta Biological, Inc.), 100 units/mL penicillin, and 100 μg/mL streptomycin at 37° C. in 5% CO2.

MDD2 breast cancer cells = assay: MTT cell viability assay, MDD2 breast cancer cells; type: cell-based, human; settings: MDD2 (p53 dominant negative), 0.1-100 μM, 24 hr
Experimental: as §1
Cytotoxicity assay: The MTT assay was performed as we previously described (Cha et al., Cancer Research 2020, 80: 1615-1623).

[3] = biological target: T1, mitochondrial ATP synthase gamma subunit (ATP5C) (Homo sapiens, UniProt P36542); assay: Pull-down assay with biotin-labeled peptides and protein identification; type: binding; settings: mitochondrial fraction of PC3 cells, biotin-labeled peptide, 16 hr at 4° C.
T1 construct: endogenous in cells; host or cells: PC3 human prostate cancer cells, mitochondrial fraction (detergent extract)
T1 sequence (P36542 26-298): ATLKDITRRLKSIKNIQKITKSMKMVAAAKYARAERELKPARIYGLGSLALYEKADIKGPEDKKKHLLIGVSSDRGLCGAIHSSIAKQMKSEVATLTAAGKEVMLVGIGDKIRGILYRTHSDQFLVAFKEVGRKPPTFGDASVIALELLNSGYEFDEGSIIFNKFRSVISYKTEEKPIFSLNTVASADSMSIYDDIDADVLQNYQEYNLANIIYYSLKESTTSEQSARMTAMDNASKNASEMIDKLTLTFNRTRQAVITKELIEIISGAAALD
Text: 8A, TEM image of PC3 cells. Representative TEM micrograph of aurB-treated cells depicting the intraritochondrial localization of aurB-GNRs (arrowheads) and mitochondria](Mt) swelling. Scale bar: 600 nm. Mt: mitochondria. […] Coomassie-stained SDS-PAGE gels are shown (8B). The protein band at ˜35 kDa (arrowhead) was identified as ATP5C using mass spectrometry analysis. The identified fragments are indicated in green underlined sequence (SEQ ID NO: 4)(8C).
Pull-down assay and protein identification: PC3 cells were washed twice with PBS, and the mitochondrial fraction was prepared with a Qproteome mitochondria isolation kit (Qiagen). […] The peptides were then preincubated with streptavidin-agarose beads for 4 hr. After washing, the beads were boiled, and the released proteins were subjected to SDS-PAGE analysis. A protein band of ˜35 kDa was subjected to microcapillary LC/MS/MS for protein identification (Harvard Medical School, Taplin Mass Spectrometry Facility). For IB, proteins were transferred to nitrocellulose membranes. After blocking with 5% BSA in TBST, the membranes were incubated with anti-ATP5C antibody at 1:25,000 in 5% BSA/TBST (Abcam) for 16 hr at 4° C. The secondary antibody was applied (anti-goat IgG-HRP; Santa Cruz Biotechnology). The signal was detected using enhanced chemiluminescence (ECL).

PC3 cells = assay: JC-1 mitochondrial membrane potential assay; type: cell-based, human
Experimental: Cells were stained by using JC-1 Mitochondrial Membrane Potential Assay Kits according to the manufacturer's instructions to measure mitochondrial membrane potential, and fluorescence was measured by flow cytometry. 9B, Caspase-3 is involved in aurB-induced apoptosis. […] The inhibitor was used at the indicated concentrations. Mean±SE (N=3).
JC-1 dye (Invitrogen) was used to determine mitochondrial membrane potential. […] After washing with PBS, trypsinized PC3 cells were incubated with JC-1 dye and analyzed by FACS.

azurin: 14 kDa periplasmic copper protein of 128 amino acids from P. aeruginosa; purified recombinant
tumor-free survival ([1]; 2.5 mg/kg azurin i.p. 3× weekly): significantly extended | tumor growth (tumor volume) ([1]; 2.5 mg/kg azurin i.p. 3× weekly, 2 months): significantly inhibited | Median tumor-free survival ([1]; 2.5 mg/kg azurin intraperitoneally, 3× weekly): 72 days

LVN GGD DVA AAV NTA AQN NAD ALF VPPP (LVNGGDDVAAAVNTAAQNNADALFVPPP) [aurB]
cytotoxic effect (MTT cell viability) ([2]; LNCaP (p53 wild-type, AR+), 24-72 hr, paclitaxel 1 nM): significantly induced dose-dependent cytotoxic effects; also recorded: more sensitive than the normal prostate cell line | inhibition rate ([2]; LNCaP, 100 μM for 72 hr): ~50% | effect on p53-inactive cancer cells (MTT) (MDD2 breast cancer cells): dose-dependent | binding to ATP5C (pull-down of ~35 kDa protein, IB) [3]: physically bound to ATP5C; also recorded: pulled down an endogenous protein | change of mitochondrial membrane potential (JC-1) (PC3 cells; PC3, 1 μM): 17% | change of mitochondrial membrane potential (JC-1) (PC3 cells; PC3, 10 μM): 21% | change of mitochondrial membrane potential (JC-1) (PC3 cells; PC3, 100 μM): 32% | effect on mitochondrial membrane potential (JC-1) (PC3 cells; PC3, 1, 10 and 100 μM): dose-dependently increased
